Assay results published in US7514245B2, “Method for producing chiral α-hydroxycarboxylic acids by enzymatic hydrolysis of chiral cyanohydrins” (DSM Fine Chemicals Austria NFG GmbH & Co. KG, priority 2003, dated 2009).

Target: T1, Rhodococcus erythropolis NCIMB 11540 amidase (Rhodococcus erythropolis, UniProt P22984)
T1 construct: made in house; host or cells: E. coli B BL21 (plasmid pMS470-33/3/1/11), crude lysate
T1 sequence (P22984 1-521): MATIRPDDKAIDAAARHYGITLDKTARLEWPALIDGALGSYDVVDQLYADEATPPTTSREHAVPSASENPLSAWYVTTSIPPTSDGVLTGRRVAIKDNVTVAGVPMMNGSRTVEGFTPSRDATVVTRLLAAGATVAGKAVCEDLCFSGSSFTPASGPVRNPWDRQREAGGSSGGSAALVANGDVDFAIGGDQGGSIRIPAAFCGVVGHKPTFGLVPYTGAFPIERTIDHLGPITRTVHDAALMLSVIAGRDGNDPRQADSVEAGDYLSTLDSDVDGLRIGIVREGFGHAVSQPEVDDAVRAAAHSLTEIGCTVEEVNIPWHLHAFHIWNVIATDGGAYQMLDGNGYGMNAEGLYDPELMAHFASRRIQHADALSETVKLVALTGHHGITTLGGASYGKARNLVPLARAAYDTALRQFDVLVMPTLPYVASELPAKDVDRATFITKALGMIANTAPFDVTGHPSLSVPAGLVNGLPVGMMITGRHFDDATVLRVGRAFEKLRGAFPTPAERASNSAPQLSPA
Assay: Determination of amidase activity of crude lysates with acetamide
Assay type: biochemical
Settings: pMS470-33/3/1/11 lysate; acetamide (40 mM) in PBS buffer at 37° C.; indophenolblue method
Procedure: The E. coli B BL21 cells transformed by pMS470-33/3/1/11 were isolated on LB-ampicillin plates and an ONC of 100 ml of LB-ampicillin medium was inoculated with an individual colony. On the next morning a main culture consisting of 250 ml of SOC-ampicillin medium was inoculated into a 1000 ml chicane flask to an OD600 of 0.01 to 0.03 (Beckmann Photometer). […] After reaching the induction density (OD600=1 Beckmann Photometer), the cultures were induced by adding IPTG to a concentration of 0.3 mM. After an induction time of 16 h, the cells were harvested (centrifugation 3000·g, 10 min) and washed with sodium phosphate buffer (0.1 M, pH=7). The pellet produced was resuspended to approximately 5 ml total volume in wash buffer and disintegrated using an ultrasound probe (BRANSON Sonifier 250, 60% power setting, constant sonication; 5 times 30 s each with 1 min pause for cooling) with constant cooling to completeness (visual control of completeness under the microscope). […]
[…] The resultant blue coloration, after dilution of all samples and standards 1:10) with water, was quantified in the spectrophotometer (Perkin Elmer UV/VIS Spectrometer Lambda Bio) at 640 nm. By correlating the increase in blue coloration over time with the extinction values of the standards, the activity (μmol of released ammonium per minute) could be back-calculated.

CC(N)=O [acetamide]
activity of crude lysates: approximately 75 U/ml
